Laboratory results reported in ChEMBL document CHEMBL2412968, “Tetrazole-based deoxyamodiaquines: synthesis, ADME/PK profiling and pharmacological evaluation as potential antimalarial agents” (Bioorg Med Chem, 2013).
Converted amounts (≈) assume the structure as drawn.

How the values were obtained:
Plasmodium falciparum [1] = assay: Antiplasmodial activity chloroquine-sensitive Plasmodium falciparum 3D7 infected in human A+ erythrocytes assessed as reduction of [3H]hypoxanthine incorporation after 24 hrs by scintillation counting; type: functional, organism-based
Plasmodium falciparum [2] = assay: Antiplasmodial activity chloroquine-resistant Plasmodium falciparum K1 infected in human A+ erythrocytes assessed as reduction of [3H]hypoxanthine incorporation after 24 hrs by scintillation counting; type: functional, organism-based
Plasmodium falciparum [3] = assay: Antiplasmodial activity chloroquine-resistant Plasmodium falciparum W2 using YOYO-1 staining after 48 hrs by FACS analysis; type: functional, organism-based; settings: W2, 48 h
physchem [4] = settings: phosphate buffered saline, pH 7.4
physchem [5] = settings: 0.01 M HCl, pH 2
CHO = assay: Cytotoxicity against CHO cells by MTT assay; type: cell-based; settings: Cricetulus griseus
Liver microsomes [6] = assay: Metabolic stability of the compound in human liver microsomes at 1 uM after 40 mins; type: ADME, Microsome
Cytochrome P450 2E1 = Cytochrome P450 2E1 (Homo sapiens, UniProt P05181); assay: Inhibition of CYP2E1 in human liver microsomes assessed as chlorzoxazone 6-hydroxylation after 20 mins by LC-MS analysis; type: ADME, Microsome
Chain of Cytochrome P450 2E1 (P05181 whole entry): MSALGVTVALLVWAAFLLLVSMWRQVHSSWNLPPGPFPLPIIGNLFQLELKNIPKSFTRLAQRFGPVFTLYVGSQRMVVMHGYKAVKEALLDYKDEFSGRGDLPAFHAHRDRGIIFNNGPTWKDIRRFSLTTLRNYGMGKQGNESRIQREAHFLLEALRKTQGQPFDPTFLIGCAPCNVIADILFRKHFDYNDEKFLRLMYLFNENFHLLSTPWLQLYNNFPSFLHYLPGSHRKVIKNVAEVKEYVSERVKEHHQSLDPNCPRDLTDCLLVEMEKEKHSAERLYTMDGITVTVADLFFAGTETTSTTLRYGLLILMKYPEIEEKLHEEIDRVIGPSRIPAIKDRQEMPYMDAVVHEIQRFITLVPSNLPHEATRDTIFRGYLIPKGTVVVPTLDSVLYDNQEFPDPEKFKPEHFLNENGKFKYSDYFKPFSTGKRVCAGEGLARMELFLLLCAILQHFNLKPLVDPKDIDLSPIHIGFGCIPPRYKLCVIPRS

Liver microsomes [7] = assay: Metabolic stability of the compound in rat liver microsomes at 1 uM after 40 mins; type: ADME, Microsome
Cytochrome P450 2D6 = Cytochrome P450 2D6 (Homo sapiens, UniProt P10635); assay: Inhibition of CYP2D6 in human liver microsomes assessed as bufuralol 1'-hydroxylation after 20 mins by LCMS analysis; type: ADME, Microsome
Chain of Cytochrome P450 2D6 (P10635 whole entry): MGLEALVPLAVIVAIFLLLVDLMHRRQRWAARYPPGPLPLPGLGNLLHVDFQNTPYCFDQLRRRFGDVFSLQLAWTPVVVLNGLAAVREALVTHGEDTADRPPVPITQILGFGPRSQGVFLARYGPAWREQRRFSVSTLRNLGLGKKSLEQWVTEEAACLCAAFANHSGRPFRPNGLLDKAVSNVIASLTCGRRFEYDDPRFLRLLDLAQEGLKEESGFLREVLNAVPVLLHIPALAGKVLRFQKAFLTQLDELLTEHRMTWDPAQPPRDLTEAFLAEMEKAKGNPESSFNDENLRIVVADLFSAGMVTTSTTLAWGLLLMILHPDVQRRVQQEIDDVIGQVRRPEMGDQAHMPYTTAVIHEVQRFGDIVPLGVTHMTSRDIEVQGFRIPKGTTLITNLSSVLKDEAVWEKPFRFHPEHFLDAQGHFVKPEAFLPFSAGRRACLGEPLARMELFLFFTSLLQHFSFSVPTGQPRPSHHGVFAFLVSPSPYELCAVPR

Liver microsomes [8] = assay: Drug metabolism in human liver microsomes assessed as formation of N-dealkylation product at 5 uM after 1 hr; type: ADME, Microsome
Hepatocyte [9] = assay: Drug metabolism in human hepatocytes assessed as formation of N-dealkylation product at 5 uM after 1 hr; type: ADME, cell-based
Cytochrome P450 2C9 = Cytochrome P450 2C9 (Homo sapiens, UniProt P11712); assay: Inhibition of CYP2C9 in human liver microsomes assessed as diclofenac 4'-hydroxylation after 20 mins by LCMS analysis; type: ADME, Microsome
Chain of Cytochrome P450 2C9 (P11712 whole entry): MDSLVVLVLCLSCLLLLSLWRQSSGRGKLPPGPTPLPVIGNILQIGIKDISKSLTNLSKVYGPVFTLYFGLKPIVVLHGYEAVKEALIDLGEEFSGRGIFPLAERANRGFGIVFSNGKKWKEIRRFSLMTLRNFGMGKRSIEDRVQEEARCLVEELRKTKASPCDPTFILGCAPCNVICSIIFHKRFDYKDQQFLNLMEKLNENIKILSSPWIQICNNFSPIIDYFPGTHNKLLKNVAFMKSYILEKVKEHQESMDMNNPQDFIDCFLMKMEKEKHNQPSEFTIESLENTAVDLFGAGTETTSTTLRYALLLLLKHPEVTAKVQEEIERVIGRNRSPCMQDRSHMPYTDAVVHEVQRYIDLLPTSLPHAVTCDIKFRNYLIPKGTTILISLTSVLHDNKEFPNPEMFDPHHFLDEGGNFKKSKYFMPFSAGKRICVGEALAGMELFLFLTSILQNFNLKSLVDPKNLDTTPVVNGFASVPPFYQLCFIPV

Cytochrome P450 1A2 = biological target: T1, Cytochrome P450 1A2 (Homo sapiens, UniProt P05177); assay: Inhibition of CYP1A2 in human liver microsomes assessed as phenacetin O-deethylation after 20 mins by LC-MS analysis; type: ADME, Microsome
T1 sequence (P05177 whole entry): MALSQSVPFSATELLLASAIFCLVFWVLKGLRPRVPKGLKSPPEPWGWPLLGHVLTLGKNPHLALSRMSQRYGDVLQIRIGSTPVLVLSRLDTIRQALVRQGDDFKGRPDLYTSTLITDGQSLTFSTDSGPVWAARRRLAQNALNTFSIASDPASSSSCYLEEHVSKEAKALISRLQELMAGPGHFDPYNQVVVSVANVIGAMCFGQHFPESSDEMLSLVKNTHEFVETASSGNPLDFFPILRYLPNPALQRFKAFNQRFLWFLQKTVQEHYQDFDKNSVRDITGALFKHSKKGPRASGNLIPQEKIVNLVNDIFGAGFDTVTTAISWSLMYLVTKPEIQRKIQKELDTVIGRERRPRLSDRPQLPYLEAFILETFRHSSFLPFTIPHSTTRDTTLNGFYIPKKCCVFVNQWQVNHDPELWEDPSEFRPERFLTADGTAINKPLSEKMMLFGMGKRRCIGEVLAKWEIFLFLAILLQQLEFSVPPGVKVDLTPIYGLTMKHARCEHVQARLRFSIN

Cytochrome P450 2A6 = biological target: T2, Cytochrome P450 2A6 (Homo sapiens, UniProt P11509); assay: Inhibition of CYP2A6 in human liver microsomes assessed as coumarin 7-hydroxylation after 20 mins by LC-MS analysis; type: ADME, Microsome
T2 sequence (P11509 whole entry): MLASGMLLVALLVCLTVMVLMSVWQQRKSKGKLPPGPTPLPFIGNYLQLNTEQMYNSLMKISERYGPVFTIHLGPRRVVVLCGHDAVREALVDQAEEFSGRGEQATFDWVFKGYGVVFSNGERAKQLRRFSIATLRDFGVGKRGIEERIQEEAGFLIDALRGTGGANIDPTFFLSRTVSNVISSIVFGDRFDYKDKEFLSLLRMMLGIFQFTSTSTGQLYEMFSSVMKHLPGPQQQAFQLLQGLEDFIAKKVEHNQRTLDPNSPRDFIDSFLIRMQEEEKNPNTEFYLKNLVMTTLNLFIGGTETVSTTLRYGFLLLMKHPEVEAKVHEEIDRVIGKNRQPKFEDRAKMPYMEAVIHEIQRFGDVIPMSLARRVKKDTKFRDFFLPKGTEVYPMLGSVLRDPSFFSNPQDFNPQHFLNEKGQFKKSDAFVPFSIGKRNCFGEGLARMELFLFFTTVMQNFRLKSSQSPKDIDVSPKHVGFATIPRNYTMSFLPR

Cytochrome P450 2C8 = biological target: T3, Cytochrome P450 2C8 (Homo sapiens, UniProt P10632); assay: Inhibition of CYP2C8 in human liver microsomes assessed as paclitaxel 6alpha-hydroxylation after 20 mins by LC-MS analysis; type: ADME, Microsome
T3 sequence (P10632 whole entry): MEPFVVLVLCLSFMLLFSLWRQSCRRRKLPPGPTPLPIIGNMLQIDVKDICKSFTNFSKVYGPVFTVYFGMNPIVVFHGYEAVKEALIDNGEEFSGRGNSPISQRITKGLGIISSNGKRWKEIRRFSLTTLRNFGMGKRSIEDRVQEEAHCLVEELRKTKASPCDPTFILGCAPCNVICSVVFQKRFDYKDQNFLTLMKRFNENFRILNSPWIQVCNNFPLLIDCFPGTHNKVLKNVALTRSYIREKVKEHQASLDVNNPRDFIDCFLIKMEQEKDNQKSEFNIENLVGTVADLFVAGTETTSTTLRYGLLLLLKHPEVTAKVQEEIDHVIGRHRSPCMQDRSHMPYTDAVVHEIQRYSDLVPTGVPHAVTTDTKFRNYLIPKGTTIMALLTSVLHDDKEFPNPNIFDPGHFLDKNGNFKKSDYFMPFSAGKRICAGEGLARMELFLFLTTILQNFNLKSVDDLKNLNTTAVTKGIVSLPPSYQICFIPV

Cytochrome P450 2B6 = biological target: T4, Cytochrome P450 2B6 (Homo sapiens, UniProt P20813); assay: Inhibition of CYP2B6 in human liver microsomes assessed as bupropion hydroxylation after 20 mins by LC-MS analysis; type: ADME, Microsome
T4 sequence (P20813 whole entry): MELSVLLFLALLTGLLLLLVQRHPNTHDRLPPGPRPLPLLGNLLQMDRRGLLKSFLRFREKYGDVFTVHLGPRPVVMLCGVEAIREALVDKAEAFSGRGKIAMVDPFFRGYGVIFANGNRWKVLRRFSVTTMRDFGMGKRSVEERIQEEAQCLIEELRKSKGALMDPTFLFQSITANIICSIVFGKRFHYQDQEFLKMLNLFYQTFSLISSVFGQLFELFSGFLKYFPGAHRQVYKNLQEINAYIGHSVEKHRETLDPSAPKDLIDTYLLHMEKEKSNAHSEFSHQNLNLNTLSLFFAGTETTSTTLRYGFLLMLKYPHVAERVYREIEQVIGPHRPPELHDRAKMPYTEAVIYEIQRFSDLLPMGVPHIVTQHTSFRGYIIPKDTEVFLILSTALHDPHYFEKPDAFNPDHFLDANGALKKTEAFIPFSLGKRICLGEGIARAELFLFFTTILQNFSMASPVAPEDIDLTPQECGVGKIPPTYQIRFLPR

[10] = Half life in albino Wistar rat at 1 mg/kg, iv; type: ADME, organism-based; parameters: dose 1 mg/kg, route intravenous; settings: in vivo
Liver microsomes [11] = assay: Metabolic stability in rat liver microsomes assessed as level of GSH adduct at 5 uM after 1 hr; type: ADME, Microsome
Liver microsomes [12] = assay: Drug metabolism in rat liver microsomes assessed as formation of N-dealkylation product at 5 uM after 1 hr; type: ADME, Microsome
[13] = Clearance in albino Wistar rat at 1 mg/kg, iv; type: ADME, organism-based; parameters: dose 1 mg/kg, route intravenous; settings: in vivo
Hepatocyte [14] = assay: Metabolic stability in rat hepatocytes assessed as level of GSH adduct at 5 uM after 1 hr; type: ADME, cell-based
Hepatocyte [15] = assay: Metabolic stability in human hepatocytes assessed as level of GSH adduct at 5 uM after 1 hr; type: ADME, cell-based
[16] = Tmax in albino Wistar rat at 10 mg/kg, po; type: ADME, organism-based; parameters: dose 10 mg/kg, route oral; settings: in vivo
[17] = Volume of distribution at steady state in albino Wistar rat at 1 mg/kg, iv; type: ADME, organism-based; parameters: dose 1 mg/kg, route intravenous; settings: in vivo, read-out: Vdss
Cytochrome P450 3A4 = Cytochrome P450 3A4 (Homo sapiens, UniProt P08684); assay: Inhibition of CYP3A4 in human liver microsomes assessed as midazolam 1'-hydroxylation after 20 mins by LCMS analysis; type: ADME, Microsome
Chain of Cytochrome P450 3A4 (P08684 whole entry): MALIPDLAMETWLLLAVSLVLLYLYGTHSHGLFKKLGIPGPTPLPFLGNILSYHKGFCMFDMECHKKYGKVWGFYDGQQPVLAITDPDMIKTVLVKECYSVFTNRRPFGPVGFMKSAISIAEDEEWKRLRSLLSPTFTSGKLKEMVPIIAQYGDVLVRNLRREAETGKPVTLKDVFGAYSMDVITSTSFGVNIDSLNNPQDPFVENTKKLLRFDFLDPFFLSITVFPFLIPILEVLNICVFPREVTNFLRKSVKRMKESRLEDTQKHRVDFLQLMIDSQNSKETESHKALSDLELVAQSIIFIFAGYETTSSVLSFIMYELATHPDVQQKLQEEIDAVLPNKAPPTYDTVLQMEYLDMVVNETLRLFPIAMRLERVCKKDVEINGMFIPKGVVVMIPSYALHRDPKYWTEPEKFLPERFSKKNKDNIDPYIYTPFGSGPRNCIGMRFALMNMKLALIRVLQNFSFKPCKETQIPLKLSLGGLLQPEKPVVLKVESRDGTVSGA

[18] = AUC (infinity) in albino Wistar rat at 1 mg/kg, iv; type: ADME, organism-based; parameters: time infinity, dose 1 mg/kg, route intravenous; settings: plasma
Cytochrome P450 2C19 = Cytochrome P450 2C19 (Homo sapiens, UniProt P33261); assay: Inhibition of CYP2C19 in human liver microsomes assessed as S-mephenytoin 4'-hydroxylation after 20 mins by LCMS analysis; type: ADME, Microsome
Chain of Cytochrome P450 2C19 (P33261 whole entry): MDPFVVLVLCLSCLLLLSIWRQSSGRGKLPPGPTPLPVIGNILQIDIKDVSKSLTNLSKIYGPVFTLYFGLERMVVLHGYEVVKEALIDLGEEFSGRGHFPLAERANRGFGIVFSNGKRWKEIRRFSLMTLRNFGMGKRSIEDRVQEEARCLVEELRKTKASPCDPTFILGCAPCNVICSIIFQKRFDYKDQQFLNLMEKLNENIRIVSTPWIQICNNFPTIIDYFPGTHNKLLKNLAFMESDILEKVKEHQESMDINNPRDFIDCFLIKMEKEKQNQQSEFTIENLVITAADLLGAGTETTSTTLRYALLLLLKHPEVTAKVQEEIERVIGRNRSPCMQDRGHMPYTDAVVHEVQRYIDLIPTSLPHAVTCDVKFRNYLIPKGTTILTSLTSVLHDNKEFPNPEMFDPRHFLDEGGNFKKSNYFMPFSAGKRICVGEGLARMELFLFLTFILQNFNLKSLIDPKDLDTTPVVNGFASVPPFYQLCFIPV

[19] = Cmax in albino Wistar rat at 10 mg/kg, po; type: ADME, organism-based; parameters: dose 10 mg/kg, route oral; settings: in vivo
[20] = Oral bioavailability in albino Wistar rat at 10 mg/kg; type: ADME, organism-based; settings: in vivo
[21] = AUC (infinity) in albino Wistar rat at 10 mg/kg, po; type: ADME, organism-based; parameters: time infinity, dose 10 mg/kg, route oral; settings: plasma
Hepatocyte [22] = assay: Drug metabolism in rat hepatocytes assessed as formation of oxidation product at 5 uM after 1 hr; type: ADME, cell-based
Liver microsomes [23] = assay: Metabolic stability in human liver microsomes assessed as level of GSH adduct at 5 uM after 1 hr; type: ADME, Microsome

CCN(CC)Cc1cc(Nc2ccnc3cc(Cl)ccc23)ccc1O
IC50 (Plasmodium falciparum [1]): 1 nM
IC50 (Plasmodium falciparum [2]): 27 nM
IC50 (Plasmodium falciparum [3]): 401 nM

CN(C)C(c1cccc(Nc2ccnc3cc(Cl)ccc23)c1)c1nnnn1C(C)(C)C (stereo not given)
IC50 (Plasmodium falciparum [1]): 52 nM
solubility kinetic at 2 h (physchem [4]): 7.3 µM (≈ 3.18 µg/mL)
solubility kinetic at 2 h (physchem [5]): > 200 µM
IC50 (Plasmodium falciparum [2]): 150 nM
IC50 (Plasmodium falciparum [3]): 227 nM

CCN(CC)C(c1cccc(Nc2ccnc3cc(Cl)ccc23)c1)c1nnnn1C(C)(C)C (stereo not given)
IC50 (Plasmodium falciparum [1]): 100 nM
solubility kinetic at 2 h (physchem [4]): < 5 µM
IC50 (CHO): 111000 nM
Stability (Liver microsomes [6]): Unstable
IC50 (Cytochrome P450 2E1): > 20000 nM
Stability (Liver microsomes [7]): Unstable
IC50 (Cytochrome P450 2D6): 2310 nM
Drug metabolism (Liver microsomes [8]): Active
Drug metabolism (Hepatocyte [9]): Active
IC50 (Cytochrome P450 2C9): 2430 nM
solubility kinetic at 2 h (physchem [5]): > 200 µM
IC50 (Plasmodium falciparum [2]): 6 nM
IC50 (Cytochrome P450 1A2): 4330 nM
IC50 (Cytochrome P450 2A6): > 20000 nM
IC50 (Cytochrome P450 2C8): 220 nM
IC50 (Cytochrome P450 2B6): > 20000 nM
IC50 (Plasmodium falciparum [3]): 66 nM

CC(C)(C)n1nnnc1C(c1cccc(Nc2ccnc3cc(Cl)ccc23)c1)N1CCCC1 (stereo not given)
half-life [10]: 51 min
Stability (Liver microsomes [11]): Stable
Drug metabolism (Liver microsomes [12]): Active
clearance [13]: 278 mL/min/kg
IC50 (Plasmodium falciparum [1]): 10 nM
solubility kinetic at 2 h (physchem [4]): < 5 µM
IC50 (CHO): 117000 nM
Stability (Hepatocyte [14]): Stable
Stability (Hepatocyte [15]): Stable
Tmax [16]: 15 min
Stability (Liver microsomes [6]): Unstable
IC50 (Cytochrome P450 2E1): > 20000 nM
Stability (Liver microsomes [7]): Unstable
Vd [17]: 12.2 L/kg
IC50 (Cytochrome P450 3A4): 1450 nM
IC50 (Cytochrome P450 2D6): 3460 nM
AUC(0-inf) [18]: 63.5 ng·h/mL
IC50 (Cytochrome P450 2C9): 3140 nM
solubility kinetic at 2 h (physchem [5]): > 200 µM
IC50 (Plasmodium falciparum [2]): 9.6 nM
IC50 (Cytochrome P450 2C19): 13800 nM
Cmax [19]: 13.3 ng/mL
IC50 (Cytochrome P450 1A2): 2540 nM
bioavailability [20]: 3.3%
IC50 (Cytochrome P450 2A6): > 20000 nM
AUC(0-inf) [21]: 21 ng·h/mL
Drug metabolism (Hepatocyte [22]): Active
IC50 (Cytochrome P450 2C8): 120 nM
Stability (Liver microsomes [23]): Stable
IC50 (Cytochrome P450 2B6): > 20000 nM
IC50 (Plasmodium falciparum [3]): 77 nM

CC(C)(C)n1nnnc1C(c1cccc(Nc2ccnc3cc(Cl)ccc23)c1)N1CCCCC1 (stereo not given)
IC50 (Plasmodium falciparum [1]): 50 nM
solubility kinetic at 2 h (physchem [4]): < 5 µM
solubility kinetic at 2 h (physchem [5]): > 200 µM
IC50 (Plasmodium falciparum [2]): 170 nM
IC50 (Plasmodium falciparum [3]): 82 nM

CC(C)(C)n1nnnc1C(c1cccc(Nc2ccnc3cc(Cl)ccc23)c1)N1CCOCC1 (stereo not given)
IC50 (Plasmodium falciparum [1]): 99 nM
IC50 (Plasmodium falciparum [2]): 1290 nM
IC50 (Plasmodium falciparum [3]): 195 nM

CN(C)C(c1cccc(Nc2ccnc3cc(Cl)ccc23)c1)c1nnnn1CCN1CCOCC1 (stereo not given)
IC50 (Plasmodium falciparum [1]): 379 nM
IC50 (Plasmodium falciparum [2]): 379 nM
IC50 (Plasmodium falciparum [3]): 544 nM

CCN(CC)C(c1cccc(Nc2ccnc3cc(Cl)ccc23)c1)c1nnnn1CCN1CCOCC1 (stereo not given)
IC50 (Plasmodium falciparum [1]): 30 nM
IC50 (Plasmodium falciparum [2]): 245 nM
IC50 (Plasmodium falciparum [3]): 194 nM
